According to patent US8552033B2, “Inhibitors of CXCR2” (SANOFI, priority 2006, dated 2013):

Biological target: human CXCR2 (Homo sapiens (Human), UniProt P25025)
Experiment: CXCR2 inhibition: calcium fluorescence assay (FLIPR)
Format: cell-based
Details: chemokine IL-8; CHO-K1 cells stably transfected with human CXCR2 and Gα16; Fluo-4 calcium response
Excerpt: Determination of CXCR2 Inhibition: Calcium Fluorescence Assay (FLIPR)
The assay is based on the detection of intracellular calcium changes detected by the selective, calcium-chelating dye, Fluo-4 (Molecular Probes). A large fluorescence intensity increase is observed upon calcium association with Fluo-4. The dye is delivered to the cell interior using an acetoxymethylester form of Fluo-4, where the intracellular esterase activity results in the charged species being released and trapped within the cytoplasm of the cell. […] By co-expressing the CXCR2 receptor and the promiscuous Gα16 protein, activation of this chemokine receptor is directed into this phospholipase C cascade resulting in intracellular calcium mobilization.
The CHO-K1 cells stably transfected with human CXCR2 and the promiscuous Gα16 protein were maintained in a log phase of growth at 37° C. and 5% CO2 in the following media: Iscove's, 10% FBS, 1× Penicillin-Streptomycin, 400 μg/mL G418 and 350 μg/mL Zeocin. Approximately 24-48 hours prior to the assay, 20,000-30,000 cells/well were plated onto a 96-well black/clear bottomed assay plate (Becton Dickinson) with a well volume of 180 μl. […] The IC50 value of a compound was determined by calculation of % inhibition of total calcium response to the chemokine.

Sequence of human CXCR2 (P25025 whole entry): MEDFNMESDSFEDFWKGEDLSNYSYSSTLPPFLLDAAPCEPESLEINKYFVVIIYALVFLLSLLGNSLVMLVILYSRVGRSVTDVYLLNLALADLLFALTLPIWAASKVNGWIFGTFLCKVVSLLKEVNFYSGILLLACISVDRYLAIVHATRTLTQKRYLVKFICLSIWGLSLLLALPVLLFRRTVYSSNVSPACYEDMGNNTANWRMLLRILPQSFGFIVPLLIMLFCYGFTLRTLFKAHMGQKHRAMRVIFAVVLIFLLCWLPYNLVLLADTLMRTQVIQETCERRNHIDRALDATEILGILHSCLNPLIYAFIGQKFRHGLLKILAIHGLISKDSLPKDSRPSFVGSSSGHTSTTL

Row | SMILES | IC50 [µM]
1 | CCC(NC(=O)c1ccc2ccccc2c1OCc1ccc(C(F)(F)F)cc1)(C(=O)O)c1ccccc1 (centres unmarked) [Example 10, 2-Phenyl-2-{[1-(4-trifluoromethyl-benzyloxy)-naphthalene-2-carbonyl]-amino}-butyric acid] | 2.2
2 | O=C(NC1(C(=O)O)CCOCC1)c1cc(F)c2ccccc2c1OCc1ccc(SC(F)(F)F)cc1 [Example 12, 4-{[4-Fluoro-1-(4-trifluoromethylsulfanyl-benzyloxy)-naphthalene-2-carbonyl]-amino}-tetrahydro-pyran-4-carboxylic acid] | 6
